Experimental findings from patent US20210284638A1 (Saint Louis University, priority 2018, published 2021) are described below.

Molecules are shown by their SMILES. Where a name gives a salt, the structure may show the parent alone.

In experiment [1] the target is T1, Recombinant human integrin αVβ3 (Homo sapiens, UniProt P05106+P06756).
T1 construct: purchased R&D Systems 3050-AV
Briefly: Solid Phase Receptor Assay for αVβ3 function. It counts as binding. Particulars: plate-bound human vitronectin; read-out: αVβ3 SPRA IC50. The method, then: C. […] Wells were washed 3 times with 150 μL TBS+ and then 150 μL of blocking buffer (TBS+ with 1% bovine serum albumin, Sigma A7906) was added. The plate was incubated for 1 hr at 37° C. and then washed 3× with TBS+ buffer. […] Compounds were diluted to 20 μM and then 1 μL was added to each well of the plate according to a standard template with each sample repeated in triplicate. After incubation for two hours at room temperature, the plate was washed 3× with 150 μL of TBS+ buffer. To each well, 50 μL of biotinylated anti-αV antibody (R&D Systems, BAF1219) at 0.5 μg/mL in TBS+/0.1% BSA were added and the plate covered and incubated for 1 hr at room temperature. After washing the plate 3× with 150 μL of TBS+ buffer, 50 μL of streptavidin-conjugated horseradish peroxidase (R&D Systems, DY998) diluted in TBS+ blocking buffer were added to the wells and the plate incubated for 20 min at room temperature. The plate was washed 3× with TBS+ buffer followed by 50 μL of TMB substrate (Sigma, T4444) added to each well in the dark and the plate was incubated for 25 min at room temperature. 25 μL of 1.0 M phosphoric acid was added as a stop solution and the plates were read at 450 nm using a Spectramax plate reader.

The target of experiment [2] is T2, Recombinant human integrin αVβ5 (Homo sapiens, UniProt P06756+P18084).
T2 construct: purchased R&D Systems 2528-AV
Description: Solid Phase Receptor Assay (SPRA) for αVβ5 function. In kind it is binding. Particulars: plate-bound human vitronectin. The method, then: D. Solid Phase Receptor Assay (SPRA) for αVβ5 Function
Wells were washed 3 times with 150 μL TBS+ and then 150 μL of blocking buffer (TBS+ with 1% bovine serum albumin, Sigma A7906) was added. The plate was incubated for 1 hr at 37° C. and then washed 3× with TBS+ buffer. […] Compounds were diluted to 20 μM and then 1 μL was added to each well of the plate according to a standard template with each sample repeated in triplicate. After incubation for two hours at room temperature, the plate was washed 3× with 150 μL of TBS+ buffer. To each well, 50 μl of biotinylated anti-αV antibody (R&D Systems, BAF1219) at 0.5 μg/mL in TBS+/0.1% BSA at 0.5 μg/mL were added and the plate covered and incubated for 1 hr at room temperature. After washing the plate 3× with 150 μL of TBS+ buffer, 50 μL of streptavidin-conjugated horseradish peroxidase (R&D Systems, DY998) diluted in TBS+ blocking buffer were added to the wells and the plate incubated for 20 min at room temperature. The plate was washed 3× with TBS+ buffer followed by 50 μL of TMB substrate (Sigma T4444) added to each well in the dark and the plate incubated for 5 min at room temperature. 25 μL of 1.0 M phosphoric acid was added as a stop solution and the plates were read at 450 nm using a Spectramax plate reader.

T1 sequence (P06756 31-992 limits assumed): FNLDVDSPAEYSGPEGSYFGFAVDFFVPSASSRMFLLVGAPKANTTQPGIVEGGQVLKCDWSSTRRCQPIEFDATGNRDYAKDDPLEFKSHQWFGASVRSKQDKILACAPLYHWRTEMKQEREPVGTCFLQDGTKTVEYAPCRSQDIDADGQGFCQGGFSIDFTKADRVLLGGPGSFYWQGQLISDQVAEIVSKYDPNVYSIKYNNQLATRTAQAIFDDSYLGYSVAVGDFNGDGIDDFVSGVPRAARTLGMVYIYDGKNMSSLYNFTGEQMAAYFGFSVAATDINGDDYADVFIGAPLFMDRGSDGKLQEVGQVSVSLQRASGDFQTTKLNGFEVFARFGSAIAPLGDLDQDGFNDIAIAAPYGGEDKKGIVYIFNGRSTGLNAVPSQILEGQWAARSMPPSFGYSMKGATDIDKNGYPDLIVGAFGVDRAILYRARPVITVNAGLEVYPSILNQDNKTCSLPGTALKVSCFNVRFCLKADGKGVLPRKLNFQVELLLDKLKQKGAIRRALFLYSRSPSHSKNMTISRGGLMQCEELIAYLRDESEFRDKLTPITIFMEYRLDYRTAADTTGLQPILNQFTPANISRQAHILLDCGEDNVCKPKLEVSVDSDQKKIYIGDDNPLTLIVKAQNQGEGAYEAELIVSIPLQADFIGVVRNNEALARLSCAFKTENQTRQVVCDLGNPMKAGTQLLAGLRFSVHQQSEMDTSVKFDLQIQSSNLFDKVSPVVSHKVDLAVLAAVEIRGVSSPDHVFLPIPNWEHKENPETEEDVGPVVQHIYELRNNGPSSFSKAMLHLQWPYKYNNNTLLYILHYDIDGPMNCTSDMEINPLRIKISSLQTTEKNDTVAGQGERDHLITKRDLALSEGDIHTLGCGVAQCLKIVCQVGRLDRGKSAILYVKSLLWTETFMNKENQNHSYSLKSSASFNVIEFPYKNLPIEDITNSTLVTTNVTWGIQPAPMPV
T1 sequence (P05106 27-718 limits assumed): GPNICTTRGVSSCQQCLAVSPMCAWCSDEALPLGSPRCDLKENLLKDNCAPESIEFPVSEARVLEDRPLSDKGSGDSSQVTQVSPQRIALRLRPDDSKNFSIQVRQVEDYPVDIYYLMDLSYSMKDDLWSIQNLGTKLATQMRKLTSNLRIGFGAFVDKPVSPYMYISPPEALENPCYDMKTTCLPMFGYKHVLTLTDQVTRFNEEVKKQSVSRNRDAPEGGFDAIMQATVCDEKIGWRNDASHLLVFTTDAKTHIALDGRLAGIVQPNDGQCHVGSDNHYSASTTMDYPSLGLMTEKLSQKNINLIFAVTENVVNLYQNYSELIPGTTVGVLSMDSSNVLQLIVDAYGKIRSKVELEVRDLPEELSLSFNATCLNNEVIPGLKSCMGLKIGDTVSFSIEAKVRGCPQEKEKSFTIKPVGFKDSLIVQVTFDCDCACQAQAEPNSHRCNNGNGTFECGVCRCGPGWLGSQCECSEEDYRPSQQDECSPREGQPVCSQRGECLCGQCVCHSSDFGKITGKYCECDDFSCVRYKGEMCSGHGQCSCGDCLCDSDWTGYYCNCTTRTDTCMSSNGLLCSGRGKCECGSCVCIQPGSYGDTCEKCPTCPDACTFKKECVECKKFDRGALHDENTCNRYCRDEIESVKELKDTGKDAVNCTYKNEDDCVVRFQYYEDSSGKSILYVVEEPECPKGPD
T2 sequence (P06756 31-992 limits assumed): as the sequence (P06756 31-992 limits assumed) above
T2 sequence (P18084 24-719 limits assumed): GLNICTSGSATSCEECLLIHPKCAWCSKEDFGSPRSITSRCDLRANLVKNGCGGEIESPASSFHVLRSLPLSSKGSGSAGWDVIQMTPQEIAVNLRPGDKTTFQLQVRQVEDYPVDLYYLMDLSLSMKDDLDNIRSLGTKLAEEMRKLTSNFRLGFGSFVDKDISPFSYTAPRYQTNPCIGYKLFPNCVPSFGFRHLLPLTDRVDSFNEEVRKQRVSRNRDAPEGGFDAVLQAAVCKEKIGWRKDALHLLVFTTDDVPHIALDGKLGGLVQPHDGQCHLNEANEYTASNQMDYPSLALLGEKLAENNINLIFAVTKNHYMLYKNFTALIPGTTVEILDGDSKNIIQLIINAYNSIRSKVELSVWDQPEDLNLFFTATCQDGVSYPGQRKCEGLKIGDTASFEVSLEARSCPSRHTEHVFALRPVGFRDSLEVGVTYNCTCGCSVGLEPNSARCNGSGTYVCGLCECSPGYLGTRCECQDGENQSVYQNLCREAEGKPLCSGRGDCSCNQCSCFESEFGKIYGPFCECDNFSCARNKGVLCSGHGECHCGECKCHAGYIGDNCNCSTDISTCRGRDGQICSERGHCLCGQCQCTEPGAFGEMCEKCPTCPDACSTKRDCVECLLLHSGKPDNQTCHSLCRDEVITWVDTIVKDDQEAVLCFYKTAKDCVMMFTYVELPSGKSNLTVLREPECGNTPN

Take `Cn1nc(CC(CC(=O)O)c2cc(C(C)(C)C#N)cc(C(C)(C)C#N)c2)cc1OCCc1ccc2c(n1)NCCC2` (stereo not shown) [Example 41, 3-(3,5-bis(2-cyanopropan-2-yl)phenyl)-4-(1-methyl-5-(2-(5,6,7,8-tetrahydro-1,8-naphthyridin-2-yl)ethoxy)-1H-pyrazol-3-yl)butanoic acid trifluoroacetate]: the IC50 in experiment [1] came to 9 nM; in experiment [2], 5 nM.
For `COc1ccc(C2=CCOCC2)cc1C(CC(=O)O)Cc1cc(OCCc2ccc3c(n2)NCCC3)n(C)n1` (stereo not shown) [Example 42] the same measures were 58 nM and 14 nM.
For `COc1ccc(C2CCOCC2)cc1C(CC(=O)O)Cc1csc(CCCc2ccc3c(n2)NCCC3)n1` (stereo not shown) [Example 43, 3-(2-methoxy-5-(tetrahydro-2H-pyran-4-yl)phenyl)-4-(2-(3-(5,6,7,8-tetrahydro-1,8-naphthyridin-2-yl)propyl)thiazol-4-yl)butanoic acid], in that order: 520 nM and 61 nM.
Take `COc1ccc(C(CC(=O)O)Cc2cc(OCCc3ccc4c(n3)NCCC4)n(C)n2)cc1F` (stereo not shown) [Example 44, 3-(3-fluoro-4-methoxyphenyl)-4-(1-methyl-5-(2-(5,6,7,8-tetrahydro-1,8-naphthyridin-2-yl)ethoxy)-1H-pyrazol-3-yl)butanoic acid]: the IC50 worked out at 2.3 nM in experiment [1] and 0.22 nM in experiment [2].
For `COCC1(c2ccc(OC)c(C(CC(=O)O)Cc3cc(OCCc4ccc5c(n4)NCCC5)n(C)n3)c2)CCOCC1` (stereo not shown) [Example 45, 3-(2-methoxy-5-(4-(methoxymethyl)tetrahydro-2H-pyran-4-yl)phenyl)-4-(1-methyl-5-(2-(5,6,7,8-tetrahydro-1,8-naphthyridin-2-yl)ethoxy)-1H-pyrazol-3-yl)butanoic acid] the same measures were 1200 nM and 1200 nM.
In the case of `COc1ccc(C2CCOCC2)cc1C(CC(=O)O)Cc1cc(OCCc2ccc3c(n2)NCCC3)n(C)n1` (stereo not shown) [Example 46, 3-(2-methoxy-5-(tetrahydro-2H-pyran-4-yl)phenyl)-4-(1-methyl-5-(2-(5,6,7,8-tetrahydro-1,8-naphthyridin-2-yl)ethoxy)-1H-pyrazol-3-yl)butanoic acid], the half-inhibitory concentration (IC50) in experiment [1] stood at 310 nM; in experiment [2], 87 nM.
Turning to `Cn1nc(C[C@@H](CC(=O)O)c2cc3c(c(C(C)(C)C)c2)OCO3)cc1OCCc1ccc2c(n1)NCCC2` [Example 47], the IC50 in experiment [1] was found to be 1.8 nM; in experiment [2] it was 0.067 nM.
For `COCC1(c2ccc(OC)c([C@H](CC(=O)O)Cc3cc(OCCc4ccc5c(n4)NCCC5)n(C)n3)c2)CCOCC1` [Example 48, (S)-3-(2-methoxy-5-(4-(methoxymethyl)tetrahydro-2H-pyran-4-yl)phenyl)-4-(1-methyl-5-(2-(5,6,7,8-tetrahydro-1,8-naphthyridin-2-yl)ethoxy)-1H-pyrazol-3-yl)butanoic acid] the same measures were 690 nM and 770 nM.

What is called IC50 is the concentration that gives 50% inhibition.
